Assay results: US20030109571A1, “Thromboxane ligands without blood clotting side effects” (ALLERGAN SALES, INC., priority 1993, published 2003)
Where two headings read alike, the source gives them in different places. Marks after values point to notes of the source that are not given here. Values belong to the compound of their own block, whether it stands above or below them.

Assays:
rat aorta = conditions: read-out: CD50 contraction of isolated rat aorta; cited from earlier work
HPRP = conditions: cited from earlier work; for Effect on HPRP: in words
[1] = Monkey intraocular pressure, topical dosing over 5 days, applanation pneumatonometry; type: in vivo; set-up: Intraocular pressure change: unit not given beside the values; conditions: for Intraocular pressure change: monkey
Protocol: (§1) The compounds were prepared at the said concentrations in a vehicle comprising 0.1% polysorbate 80 and 10 mM TRIS base. Dogs and monkeys were treated by administering 25 ul to the ocular surface, the contralateral eye received vehicle as a control. Intraocular pressure was measured by applanation pneumatonometry. Experiments were performed with dogs and monkeys. Dog intraocular pressure was measured immediately before drug administration and at 2, 4 and 6 hour thereafter. Additional studies in monkeys were performed over a 5 day period and drug was administered at times 0, 6, 24, 30, 48, 54, 72, 78, and 96 hours. Monkey intraocular pressure was recorded just before drug administration on each day and at the 2 and 4 hour time intervals between dosing.

Platelets (Human) = assay: Platelet aggregation in platelet-rich plasma from healthy human donors; type: cell-based; conditions: for Kb: antagonist, read-out: KB Platelets aggreg
Protocol: (§2) Activity at different prostanoid receptors was measured in vitro in isolated smooth muscle preparations. FP-activity was measured as contraction of the isolated feline iris sphincter. EP1-activity was measured as contraction of the longitudinal smooth muscle of the isolated guinea pig ileum. EP3-activity was measured as inhibition of the twitch response induced by electrical field stimulation in the isolated guinea pig was deferens and as contraction of the longitudinal smooth muscle of the isolated chick ileum. TP-vasoconstrictor activity was measured as contraction of rings of the isolated rat thoracic aorta. Effects on platelets from healthy human donors were measured by incubating platelet-rich plasma with the compounds described herein. Inhibition of aggregation was determined by the ability of the compounds described herein to inhibit platelet aggregation in platelet-rich plasma induced by 20 μM ADP.

[2] = Dog intraocular pressure, topical dosing, applanation pneumatonometry; type: in vivo; conditions: for Intraocular pressure change: dog
Protocol: as §1

[3] = molecular target: T1, TP-receptor (vascular, TPVASC) (Rattus norvegicus, UniProt P34978); assay: TP-vasoconstrictor activity: contraction of rings of isolated rat thoracic aorta, without or with SQ29,548; conditions: for Kb: antagonist
T1 construct: measured in vitro in isolated smooth muscle preparations; from tissue; host or cells: rings of isolated rat thoracic aorta
T1 sequence (P34978 1-341): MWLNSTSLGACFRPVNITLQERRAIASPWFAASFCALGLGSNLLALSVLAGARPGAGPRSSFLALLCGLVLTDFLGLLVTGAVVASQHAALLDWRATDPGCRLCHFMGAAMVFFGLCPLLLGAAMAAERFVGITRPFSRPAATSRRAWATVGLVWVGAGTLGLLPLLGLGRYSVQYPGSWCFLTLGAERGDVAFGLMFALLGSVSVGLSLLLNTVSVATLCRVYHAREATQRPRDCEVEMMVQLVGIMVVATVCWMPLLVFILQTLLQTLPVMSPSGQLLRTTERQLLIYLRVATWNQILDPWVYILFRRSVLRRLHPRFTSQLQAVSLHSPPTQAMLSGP
Protocol: as §2
In addition, inhibition by the thromboxane A2-receptor antagonist SQ29,548 ([1S-[1α, 2α (5Z), 3α, 4α]]-7-[3-[[2-[phenylamino)carbonyl]-hydrazino]methyl]-7-oxabicyclo[2.2.1] hept-2-yl]-5-heptenoic acid) of vasoconstrictor activity was investigated.

platelets = conditions: in words; cited from earlier work
vasculature = conditions: in words; cited from earlier work
[4] = test system: isolated perfused coronary arteries; conditions: at 1 μM; cited from earlier work
FP prostanoid receptor = assay: FP-activity: contraction of the isolated feline iris sphincter; conditions: concentration producing 50% of maximal response; read-out: EC50 at FP (Cat Iris)
Protocol: as §2

EP3 prostanoid receptor [5] = assay: EP3-activity: inhibition of electrically induced twitch response in isolated guinea pig vas deferens; conditions: read-out: EC50 at EP3(c) (Guinea Pig vas deferens)
Protocol: as §2

EP3 prostanoid receptor [6] = assay: EP3-activity: contraction of longitudinal smooth muscle of isolated chick ileum; conditions: read-out: EC50 at EP3(d) (Chick Ileum)
Protocol: as §2

EP1 prostanoid receptor = assay: EP1-activity: contraction of longitudinal smooth muscle of isolated guinea pig ileum
Protocol: as §2

[7] = Table 7, read-out: EC50 Platelets aggreg
[8] = Table 7, read-out: EC50 (Rat Aorta)

Compound: CCCCC[C@H](O)/C=C/C1S[C@H]2CC(S2)[C@@H]1C/C=C\CCCC(=O)O (stereo partly drawn) [Example 13]
EC50 (rat aorta): 0.7 nM
IC50 (HPRP; read-out: IC50 irreversible aggregation of HPRP): 4300 nM

Compound: 9,11-dideoxy-9α,11α-methanoepoxy prostaglandin F2α [Example U-46619, reference compound]
Intraocular pressure change ([1]; dose not given, 0 HR): 0
Intraocular pressure change ([1]; dose not given, 2 HR): 2.0
Intraocular pressure change ([1]; dose not given, 4 HR): 0.3
Intraocular pressure change ([1]; dose not given, 6 HR): 1.0
Effect on intraocular pressure ([1]; monkeys, in words): increase in intraocular pressure
EC50 (Platelets (Human); [7]): 320 nM
Agonist response, platelet aggregation (Platelets (Human); agonist alone at 3.3 × 10-7): 97.7 ± 1.6 % of max response
Agonist response, platelet aggregation (Platelets (Human); agonist alone at 10-6): 100.0 ± 1.9 % of max response
Agonist response, platelet aggregation (Platelets (Human); agonist alone at 10-7): −7.0 + 1.1 % of max response
Agonist response, platelet aggregation (Platelets (Human); agonist alone at 10-8): 0 % of max response
Intraocular pressure change ([2]; dose 0.1%, 2 HR after dosing): +0.86
Intraocular pressure change ([2]; dose 0.1%, 4 HR after dosing): +1.75
Intraocular pressure change ([2]; dose 0.1%, 6 HR after dosing): +2.7
Effect on intraocular pressure ([2]; dogs, in words): increase in intraocular pressure

Compound: [1R-[1α, 4α, 5β(Z), 6α(1E, 3S*)-7-[6-(3-hydroxy-1-octenyl)-2-oxabicyclo[2.2.1]hept-5-yl]-5-hepten-1-ol [Example 19]
EC50 [3, 8]: 26 nM

EC50 [3, 8]: 2 nM
Compound: I-BOP [reference compound]
EC50 (Platelets (Human); [7]): 214 nM

Compound: [1S-[1α, 2β(Z), 3(1E, 3R*), 5α]]-7-[3-(3-hydroxy-1-octenyl)-6,6-dimethylbicyclo[3.1.1]hept-2-yl]-5-hepten-1-ol [Example 20]
EC50 [3, 8]: 929 nM

Compound: [1S-[1α, 2α(5Z), 3α, 4α]]-7-[3-[2(phenylamino)carbonyl]-hydrazino]methyl]-7-oxabicyclo [2.2.1]hept-2-yl]-5-hepten-1-ol [Example 22]
Kb ([3]; Table 7): 18.2 nM
Kb (Platelets (Human); Table 7): 4500 nM

Compound: CCCCCC(/C=C/C1C2CC(OC(=O)O2)C1C/C=C\CCCC(=O)O)OC(=O)C(C)(C)C (stereo not drawn) [Example 12, 7-[6-carboxy-2-cis-hexenyl]-6-[3α-pivaloyloxy-1-trans-octenyl]-3-oxo-2,4-dioxobicyclo [3.2.1] Octane]
Effect on HPRP (HPRP): no effect
Intraocular pressure change ([2]; dose 0.1%, 2 HR after dosing): −3.8**
Intraocular pressure change ([2]; dose 0.1%, 4 HR after dosing): −4.7**
Intraocular pressure change ([2]; dose 0.1%, 6 HR after dosing): −6.9**

Activity in contracting vascular smooth muscle ([3]; in words): pronounced activity
Compound: CCCCCC(/C=C/C1C2CC(OC(=O)O2)C1C/C=C\CCCC(=O)O)O[Si](C)(C)C(C)(C)C (stereo not drawn) [Example 16, 7-[6-carboxy-2-cis-hexenyl]-6-[3α-t-butyldimethylsilyloxy-1-trans-octenyl]-3-oxo-2,4-dioxobicyclo [3.2.1] octane]
Action on platelets (platelets): No effect
Action on the vasculature (vasculature): weak vasoconstrictor activity
Ability to cause platelet aggregation (Platelets (Human); in words): no or minimal ability

Compound: [1S-[1α, 2α(Z), 3β(1E, 3S*), 4α]]-7-[3-(3-hydroxy-4-(4-iodophenoxy)-1-butenyl]-7-oxabicyclo[2.2.1]hept-2-yl]-5-hepten-1-ol [Example 21]
EC50 [3, 8]: 0.4 nM

Compound: CCCCCC(/C=C/C1C2CC(OC(=O)O2)C1C/C=C\CCCC(=O)OCc1ccccc1)OC(=O)C(C)(C)C (stereo not drawn) [Example 11, 7-16-carbobenzoxy-2-cis-hexenyl]-6-[3α-pivaloyloxy-1-trans-octenyl]-3-oxo-2,4-dioxobicyclo[3.2.11 octane]
Effect on HPRP (HPRP): no effect
Intraocular pressure change ([2]; dose 0.1%, 2 HR after dosing): −6.9**
Intraocular pressure change ([2]; dose 0.1%, 4 HR after dosing): −7.7**
Intraocular pressure change ([2]; dose 0.1%, 6 HR after dosing): −9.4**

Kb ([3]; Table 7): 1.6 nM
Compound: [1S-[1α, 2α (5Z), 3α, 4α]]-7-[3-[[2-[phenylamino)carbonyl]-hydrazino]methyl]-7-oxabicyclo[2.2.1] hept-2-yl]-5-heptenoic acid [SQ29,548, reference compound]
Kb (Platelets (Human); Table 7): 30.6 nM

EC50 ([3]; Table 1, read-out: EC50 at TPVASC (Rat Aorta)): 0.23 nM
EC50 ([3]; absence of SQ29,548, read-out: EC50 at TPVASC-receptor, rat aorta): 2 nM
EC50 ([3]; presence of SQ29,548 (1 uM), read-out: EC50 at TPVASC-receptor, rat aorta): 325 nM
EC50 (FP prostanoid receptor): 433 nM
EC50 (EP3 prostanoid receptor [5]): 282 nM
EC50 (EP3 prostanoid receptor [6]): 245 nM
EC50 (EP1 prostanoid receptor): 1240 nM
Compound: CCCCCC(O)/C=C/C1C2CC(OC(=O)O2)C1C/C=C\CCCC(=O)O (stereo not drawn) [Example 7]
Intraocular pressure change ([1]; dose 0.01%, 0 HR): 0
Intraocular pressure change ([1]; dose 0.01%, 2 HR): −0.4
Intraocular pressure change ([1]; dose 0.01%, 4 HR): 0
Intraocular pressure change ([1]; dose 0.01%, 6 HR): 0
Intraocular pressure change ([1]; dose 0.01%, 24 HR): −1.0
Intraocular pressure change ([1]; dose 0.01%, 26 HR): 3.2
Intraocular pressure change ([1]; dose 0.01%, 28 HR): −4.6
Intraocular pressure change ([1]; dose 0.01%, 30 HR): −3.2
Intraocular pressure change ([1]; dose 0.01%, 48 HR): −1.8
Intraocular pressure change ([1]; dose 0.01%, 50 HR): −3.8
Intraocular pressure change ([1]; dose 0.01%, 52 HR): −4.0
Intraocular pressure change ([1]; dose 0.01%, 54 HR): −4.2
Intraocular pressure change ([1]; dose 0.01%, 72 HR): 4.2
Intraocular pressure change ([1]; dose 0.01%, 74 HR): −2.0
Intraocular pressure change ([1]; dose 0.01%, 76 HR): −3.2
Intraocular pressure change ([1]; dose 0.01%, 78 HR): −4.0
Intraocular pressure change ([1]; dose 0.01%, 96 HR): −2.0
Intraocular pressure change ([1]; dose 0.01%, 98 HR): −2.2
Intraocular pressure change ([1]; dose 0.01%, 100 HR): −3.2
Inhibition of vasoconstriction of isolated perfused cat coronary artery induced by carbocyclic TXA2 [4]: Inhibited vasoconstriction of isolated perfused cat coronary artery induced by carbocyclic TXA2 by 72% at 1 μM^11
EC50 (Platelets (Human); Table 1, read-out: EC50 Platelets (Human) Aggregation): 24 nM
Agonist response, platelet aggregation (Platelets (Human); agonist alone at 3.3 × 10-8): −8.8 + 1.3 % of max response
Agonist response, platelet aggregation (Platelets (Human); agonist alone at 10-6): 103.0 ± 1.9 % of max response
Agonist response, platelet aggregation (Platelets (Human); agonist alone at 10-7): 100.5 ± 2.2 % of max response
Agonist response, platelet aggregation (Platelets (Human); agonist alone at 10-8): −7.9 + 1.3 % of max response
Agonist response, platelet aggregation (Platelets (Human); agonist alone at 10-9): 0 % of max response
Intraocular pressure change ([2]; dose 0.01%, 2 HR after dosing): −9.7**
Intraocular pressure change ([2]; dose 0.01%, 4 HR after dosing): −11.4**
Intraocular pressure change ([2]; dose 0.01%, 6 HR after dosing): −11.25**

Compound: Pinane thromboxane A2 [reference compound]
EC50 [3, 8]: 203 nM
EC50 (Platelets (Human); [7]): 950 nM
